{
  "source": "ChEMBL document CHEMBL5325426",
  "about": "“Structure-based discovery of potent USP28 inhibitors derived from Vismodegib” (Eur J Med Chem, 2023)",
  "key": {"LS174T": {"system": "LS174T", "assay": "Antiproliferative activity against human LS174T cells assessed as cell growth inhibition incubated for 3 days by SRB assay", "assay_type": "functional, cell-based", "details": "72 h"}, "[1]": {"biological_target": "T1, Ubiquitin carboxyl-terminal hydrolase isozyme L5 (Homo sapiens) (UniProt Q9Y5K5)", "T1 sequence (whole entry)": "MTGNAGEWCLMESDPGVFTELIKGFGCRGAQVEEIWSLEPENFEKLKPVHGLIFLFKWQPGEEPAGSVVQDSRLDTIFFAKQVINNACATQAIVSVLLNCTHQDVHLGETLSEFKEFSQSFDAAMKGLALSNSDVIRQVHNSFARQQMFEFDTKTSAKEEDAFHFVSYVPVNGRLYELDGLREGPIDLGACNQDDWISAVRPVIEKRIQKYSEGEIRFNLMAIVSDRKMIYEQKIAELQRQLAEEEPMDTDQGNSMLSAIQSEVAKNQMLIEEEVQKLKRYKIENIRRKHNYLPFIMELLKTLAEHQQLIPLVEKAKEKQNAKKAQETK", "assay": "Inhibition of UCHL5 (1 to 228 residues) (unknown origin) expressed in Escherichia coli BL21 (DE3) using Ub-AMC as substrate at 5 uM by fluorescence based analysis"}, "HCT-116 [2]": {"system": "HCT-116", "assay": "Inhibition of colony formation in human HCT-116 cells at 15 uM by crystal violet staining assay", "assay_type": "functional, cell-based"}, "[3]": {"biological_target": "T2, Ubiquitin carboxyl-terminal hydrolase 28 (Homo sapiens, UniProt Q96RU2)", "T2 sequence (Q96RU2 whole entry)": "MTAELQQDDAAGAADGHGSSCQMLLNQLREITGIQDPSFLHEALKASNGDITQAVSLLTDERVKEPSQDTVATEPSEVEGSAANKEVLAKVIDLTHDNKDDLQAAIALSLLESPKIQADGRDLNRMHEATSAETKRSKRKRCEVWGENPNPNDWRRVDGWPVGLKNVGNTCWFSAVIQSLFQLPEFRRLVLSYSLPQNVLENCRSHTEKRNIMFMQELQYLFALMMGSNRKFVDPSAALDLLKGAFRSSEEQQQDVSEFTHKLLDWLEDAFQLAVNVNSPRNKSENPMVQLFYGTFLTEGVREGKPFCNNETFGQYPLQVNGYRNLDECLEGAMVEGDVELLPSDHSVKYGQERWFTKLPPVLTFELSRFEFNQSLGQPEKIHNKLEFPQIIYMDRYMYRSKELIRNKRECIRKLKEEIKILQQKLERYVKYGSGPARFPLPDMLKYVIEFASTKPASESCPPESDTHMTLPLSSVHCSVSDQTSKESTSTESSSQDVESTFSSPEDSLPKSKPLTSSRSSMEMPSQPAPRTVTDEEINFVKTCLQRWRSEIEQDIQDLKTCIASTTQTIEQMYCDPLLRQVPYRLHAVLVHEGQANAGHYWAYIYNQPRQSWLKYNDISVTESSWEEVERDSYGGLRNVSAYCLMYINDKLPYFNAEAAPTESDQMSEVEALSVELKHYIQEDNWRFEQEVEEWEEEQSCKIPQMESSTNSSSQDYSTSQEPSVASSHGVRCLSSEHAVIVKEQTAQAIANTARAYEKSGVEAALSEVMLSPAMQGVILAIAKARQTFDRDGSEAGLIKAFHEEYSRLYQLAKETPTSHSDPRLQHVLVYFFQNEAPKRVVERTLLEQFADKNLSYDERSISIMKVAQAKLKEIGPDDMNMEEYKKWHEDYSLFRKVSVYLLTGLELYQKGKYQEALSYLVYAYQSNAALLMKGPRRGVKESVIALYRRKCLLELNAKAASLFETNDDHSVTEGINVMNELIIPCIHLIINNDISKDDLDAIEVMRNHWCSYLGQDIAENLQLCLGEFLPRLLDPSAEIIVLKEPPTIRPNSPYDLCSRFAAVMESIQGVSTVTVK", "assay": "Inhibition of USP28 (149 to 703 residues) (unknown origin) expressed in Escherichia coli BL21 (DE3) using Ub-AMC as substrate by fluorescence based analysis"}, "[4]": {"biological_target": "Ubiquitin carboxyl-terminal hydrolase 7 (Homo sapiens) (UniProt Q93009)", "sequence (Q93009 whole entry, looked up, the tested form may be a part)": "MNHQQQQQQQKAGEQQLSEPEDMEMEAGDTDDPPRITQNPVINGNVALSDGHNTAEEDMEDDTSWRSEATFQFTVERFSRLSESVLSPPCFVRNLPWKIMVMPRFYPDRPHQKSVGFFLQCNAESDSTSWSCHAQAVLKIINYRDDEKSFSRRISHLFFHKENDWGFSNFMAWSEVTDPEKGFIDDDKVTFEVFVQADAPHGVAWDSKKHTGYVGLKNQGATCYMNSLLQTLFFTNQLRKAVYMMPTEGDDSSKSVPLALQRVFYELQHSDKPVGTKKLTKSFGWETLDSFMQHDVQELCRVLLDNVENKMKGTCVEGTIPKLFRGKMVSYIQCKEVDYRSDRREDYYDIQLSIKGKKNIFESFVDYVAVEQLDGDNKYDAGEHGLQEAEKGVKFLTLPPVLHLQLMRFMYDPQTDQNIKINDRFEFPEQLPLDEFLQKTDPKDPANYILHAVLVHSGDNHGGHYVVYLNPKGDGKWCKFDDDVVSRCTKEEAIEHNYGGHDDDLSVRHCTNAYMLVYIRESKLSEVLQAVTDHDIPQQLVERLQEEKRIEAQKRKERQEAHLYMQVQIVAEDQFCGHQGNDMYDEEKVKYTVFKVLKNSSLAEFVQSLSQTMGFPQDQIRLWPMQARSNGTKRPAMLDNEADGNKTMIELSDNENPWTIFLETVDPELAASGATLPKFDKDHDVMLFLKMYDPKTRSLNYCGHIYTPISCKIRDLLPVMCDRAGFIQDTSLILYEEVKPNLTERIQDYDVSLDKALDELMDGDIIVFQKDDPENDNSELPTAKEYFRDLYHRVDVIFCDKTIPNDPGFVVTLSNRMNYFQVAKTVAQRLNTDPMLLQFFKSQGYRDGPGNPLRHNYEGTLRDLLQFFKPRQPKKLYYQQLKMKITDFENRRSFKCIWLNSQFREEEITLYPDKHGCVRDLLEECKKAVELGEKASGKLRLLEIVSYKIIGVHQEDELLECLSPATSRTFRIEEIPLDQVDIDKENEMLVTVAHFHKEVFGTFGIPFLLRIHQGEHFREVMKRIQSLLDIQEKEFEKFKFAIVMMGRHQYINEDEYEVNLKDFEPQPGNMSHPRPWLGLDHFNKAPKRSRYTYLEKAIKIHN", "assay": "Inhibition of USP7 (208 to 560 residues) (unknown origin) expressed in Escherichia coli BL21 (DE3) using Ub-AMC as substrate at 5 uM by fluorescence based analysis"}, "[5]": {"biological_target": "T3, Ubiquitin carboxyl-terminal hydrolase 8 (Homo sapiens) (UniProt P40818)", "T3 sequence (whole entry)": "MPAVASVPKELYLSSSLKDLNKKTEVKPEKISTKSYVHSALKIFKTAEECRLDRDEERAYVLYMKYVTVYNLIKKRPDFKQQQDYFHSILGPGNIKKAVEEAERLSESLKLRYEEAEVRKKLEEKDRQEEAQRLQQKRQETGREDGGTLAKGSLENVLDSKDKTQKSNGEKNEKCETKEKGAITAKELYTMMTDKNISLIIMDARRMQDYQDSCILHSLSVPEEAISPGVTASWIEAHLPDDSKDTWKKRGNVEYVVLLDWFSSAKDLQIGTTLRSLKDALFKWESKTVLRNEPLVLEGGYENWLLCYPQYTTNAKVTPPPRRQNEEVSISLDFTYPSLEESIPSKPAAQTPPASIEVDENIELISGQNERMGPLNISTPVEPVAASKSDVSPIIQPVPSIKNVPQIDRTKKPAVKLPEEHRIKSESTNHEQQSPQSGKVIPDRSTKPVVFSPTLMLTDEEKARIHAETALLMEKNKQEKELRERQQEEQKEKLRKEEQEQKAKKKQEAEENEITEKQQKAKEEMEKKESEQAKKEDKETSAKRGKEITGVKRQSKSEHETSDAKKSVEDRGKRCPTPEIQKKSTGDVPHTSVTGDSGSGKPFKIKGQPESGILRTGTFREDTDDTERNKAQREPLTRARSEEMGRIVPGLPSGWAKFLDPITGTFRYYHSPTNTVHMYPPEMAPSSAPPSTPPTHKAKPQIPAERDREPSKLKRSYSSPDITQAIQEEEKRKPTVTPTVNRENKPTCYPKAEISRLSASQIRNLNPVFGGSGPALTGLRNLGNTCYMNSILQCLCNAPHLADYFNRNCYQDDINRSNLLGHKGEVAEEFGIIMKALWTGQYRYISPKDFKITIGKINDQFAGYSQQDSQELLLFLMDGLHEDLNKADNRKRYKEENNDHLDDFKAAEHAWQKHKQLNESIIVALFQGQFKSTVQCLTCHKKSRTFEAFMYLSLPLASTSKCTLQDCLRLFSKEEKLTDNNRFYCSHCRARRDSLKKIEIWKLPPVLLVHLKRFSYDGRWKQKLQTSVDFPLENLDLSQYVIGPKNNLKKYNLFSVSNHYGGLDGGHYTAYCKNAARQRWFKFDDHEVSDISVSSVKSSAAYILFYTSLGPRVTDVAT", "assay": "Inhibition of USP8 (734 to 1110 residues) (unknown origin) expressed in Escherichia coli BL21 (DE3) using Ub-AMC as substrate at 5 uM by fluorescence based analysis"}, "HCT-116 [6]": {"system": "HCT-116", "assay": "Antiproliferative activity against human HCT-116 cells assessed as effect on Bcl-2 protein level at 30 to 100 uM incubated for 1 day by western blotting analysis", "assay_type": "functional, cell-based", "details": "dose 30-100 µM"}, "HCT-116 [7]": {"system": "HCT-116", "assay": "Inhibition of colony formation in human HCT-116 cells at 17.5 uM by crystal violet staining assay", "assay_type": "functional, cell-based"}},
  "note": "Active and inactive are the calls of the source. The rule behind the calls is not given here.",
  "data": [
    {"smiles": "CS(=O)(=O)c1ccc(C(=O)Nc2ccc(Cl)c(-c3ccc4c(c3)CCNC4)c2)c(Cl)c1", "values": [
      {"measurement": "IC50", "setting": "LS174T", "value": 19.9, "unit": "µM"},
      {"measurement": "inhibition", "setting": "[1]", "value": "Active"},
      {"measurement": "inhibition", "setting": "HCT-116 [2]", "value": "Active"},
      {"measurement": "IC50", "setting": "[3]", "value": 0.1, "unit": "µM"},
      {"measurement": "inhibition", "setting": "[4]", "value": "Active"},
      {"measurement": "inhibition", "setting": "[5]", "value": "Active"},
      {"measurement": "Activity", "setting": "HCT-116 [6]", "value": "inactive"}
    ]},
    {"smiles": "CS(=O)(=O)c1ccc(C(=O)Nc2ccc(Cl)c(-c3ccc4c(c3)CNC4)c2)c(Cl)c1", "values": [
      {"measurement": "IC50", "setting": "LS174T", "value": 24.3, "unit": "µM"},
      {"measurement": "inhibition", "setting": "[1]", "value": "Active"},
      {"measurement": "inhibition", "setting": "HCT-116 [2]", "value": "Active"},
      {"measurement": "IC50", "setting": "[3]", "value": 0.04, "unit": "µM"},
      {"measurement": "inhibition", "setting": "[4]", "value": "Active"},
      {"measurement": "inhibition", "setting": "[5]", "value": "Active"},
      {"measurement": "Activity", "setting": "HCT-116 [6]", "value": "inactive"}
    ]},
    {"smiles": "CS(=O)(=O)c1ccc(C(=O)Nc2ccc(Cl)c(-c3ccc(C4(N)CC4)cc3)c2)c(Cl)c1", "values": [
      {"measurement": "IC50", "setting": "LS174T", "value": 21.9, "unit": "µM"},
      {"measurement": "inhibition", "setting": "[1]", "value": "Active"},
      {"measurement": "IC50", "setting": "[3]", "value": 0.3, "unit": "µM"},
      {"measurement": "inhibition", "setting": "HCT-116 [7]", "value": "Active"},
      {"measurement": "inhibition", "setting": "[4]", "value": "Active"},
      {"measurement": "inhibition", "setting": "[5]", "value": "Active"}
    ]}
  ]
}
